{"source": "patent US7410755B2", "about": "“ADP detection using an enzyme-coupled reaction” (Discoverx, priority 2005, dated 2008)", "molecular_target": "Protein Kinase A (PKA) (Homo sapiens, UniProt P17612)", "conditions": "read-out: Km of ATP for PKA; Kemptide substrate, PKA (Upstate), 30° C. for 1 hour; fitted to Michaelis-Menten equation; FIG. 4", "excerpt": "In this second example, kinase reaction, the activity of PKA is characterized further. In this experiment, the kinetics of ATP on PKA activity was examined by measuring the rate of kinase activity at varying concentration of ATP. The results of this assay were fitted to the Michaelis-Menten equation so that the Km (Michaelis-Menten constant) of ATP for PKA could be determined.\nTo perform a protein kinase assay using the ADP Detection Assay, the assay reagents were thawed at room temperature for several hours.\nLow salt assay buffer (LS ASB) was used to dilute all reagents in the kinase reaction and consisted of 15 mM Hepes, 20 mM NaCl, 1 mM EGTA, 0.02% Tween 20, 10 mM MgCl2, 0.1% bovine gamma globulin at pH 7.4. Substrate reagent was generated containing 800 μM Kemptide substrate. […] PKA kinase (Upstate) was diluted to give a reagent of 20 ng/ml. […]\nTo detect the generation of ADP as a result of kinase activity, 10 μ ADP Substrate Reagent was added followed immediately by 20 μl of ADP Enzyme Reagent. […] Assay signal was measured with a Fluorocount® fluorescent plate reader (Packard) using 0.1 second integration with excitation and emission wavelengths at 530 and 590 nm respectively and a PMT voltage of 750 Volts.\nThe data was converted by dividing the signal measured by 60 to obtain the enzyme rate in RFU per minute. […]"}
{"smiles": "Nc1ncnc2c1ncn2[C@@H]1O[C@H](COP(=O)(O)OP(=O)(O)OP(=O)(O)O)[C@@H](O)[C@H]1O", "note": "[ATP]", "values": [{"measurement": "Km", "value": 22.3, "unit": "µM"}]}
